One assay has as its target Mu-type opioid receptor (Homo sapiens, UniProt P35372). The experiment in a line: DRUGMATRIX: Opiate mu (OP3, MOP) radioligand binding (ligand: [3H] Diprenorphine). Type of assay: cell membranes, CHO-K1, Membrane. As to conditions: Not Active = under 50% inhibition at 10 µM.
The target in assay [1] is Tyrosine-protein kinase Lck (Homo sapiens, UniProt P06239). The assay can be described thus: DRUGMATRIX: Protein Tyrosine Kinase, LCK enzyme inhibition (substrate: Poly(Glu:Tyr)). Type of assay: cell-based, Insect cells. As to conditions: Not Active = under 50% inhibition at 10 µM.
The target in the next assay is Histamine H2 receptor (Homo sapiens, UniProt P25021). Type of assay: cell membranes, CHO-K1, Membrane. Also: in other assays of this panel Not Active means under 50% inhibition at 10 µM.
Assay [2] concerns the target T1, Alpha-2A adrenergic receptor (Homo sapiens, UniProt P08913). Also: in other assays of this panel Not Active means under 50% inhibition at 10 µM.
T1 sequence (P08913 whole entry): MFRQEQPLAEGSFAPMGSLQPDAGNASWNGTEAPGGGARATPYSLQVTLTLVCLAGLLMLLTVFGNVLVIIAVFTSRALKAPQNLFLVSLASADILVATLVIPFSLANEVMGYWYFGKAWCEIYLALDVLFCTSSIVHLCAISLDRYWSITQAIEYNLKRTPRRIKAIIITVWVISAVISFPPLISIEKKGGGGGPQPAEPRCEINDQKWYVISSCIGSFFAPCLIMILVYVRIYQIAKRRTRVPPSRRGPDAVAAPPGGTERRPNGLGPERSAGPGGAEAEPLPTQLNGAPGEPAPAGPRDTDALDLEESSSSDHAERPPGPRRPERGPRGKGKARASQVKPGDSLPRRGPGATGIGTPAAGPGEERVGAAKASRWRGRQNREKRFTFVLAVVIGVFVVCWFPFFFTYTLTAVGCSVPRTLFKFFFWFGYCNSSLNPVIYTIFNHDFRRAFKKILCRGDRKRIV
Type of assay: cell membranes, Sf9, Membrane.

Another assay deals with Substance-P receptor (Homo sapiens, UniProt P25103). In kind it is cell membranes, Membrane. Conditions: cho.
Sequence of Substance-P receptor (P25103 whole entry): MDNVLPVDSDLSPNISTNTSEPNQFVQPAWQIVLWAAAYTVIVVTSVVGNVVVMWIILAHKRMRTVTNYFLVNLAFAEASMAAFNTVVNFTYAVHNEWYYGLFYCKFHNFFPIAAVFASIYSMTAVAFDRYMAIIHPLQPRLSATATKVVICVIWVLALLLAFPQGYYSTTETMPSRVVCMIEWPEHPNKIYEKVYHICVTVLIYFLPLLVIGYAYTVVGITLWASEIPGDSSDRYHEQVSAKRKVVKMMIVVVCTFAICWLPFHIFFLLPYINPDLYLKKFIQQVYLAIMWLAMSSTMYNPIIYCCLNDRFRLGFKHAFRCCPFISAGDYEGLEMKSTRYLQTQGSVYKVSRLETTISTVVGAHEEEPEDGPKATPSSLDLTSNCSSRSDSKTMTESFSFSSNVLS

Sequence of Mu-type opioid receptor (P35372 whole entry): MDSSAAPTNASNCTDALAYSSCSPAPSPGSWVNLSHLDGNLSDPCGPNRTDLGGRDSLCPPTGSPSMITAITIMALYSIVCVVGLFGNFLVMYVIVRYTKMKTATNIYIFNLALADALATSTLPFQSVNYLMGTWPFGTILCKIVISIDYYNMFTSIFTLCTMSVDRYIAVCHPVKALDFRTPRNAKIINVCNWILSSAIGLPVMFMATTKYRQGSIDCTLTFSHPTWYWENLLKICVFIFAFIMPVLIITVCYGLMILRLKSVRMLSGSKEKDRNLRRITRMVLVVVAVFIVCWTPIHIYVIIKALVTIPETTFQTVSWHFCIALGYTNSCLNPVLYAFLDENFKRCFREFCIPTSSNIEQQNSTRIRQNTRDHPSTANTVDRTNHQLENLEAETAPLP
Sequence of Histamine H2 receptor (P25021 whole entry): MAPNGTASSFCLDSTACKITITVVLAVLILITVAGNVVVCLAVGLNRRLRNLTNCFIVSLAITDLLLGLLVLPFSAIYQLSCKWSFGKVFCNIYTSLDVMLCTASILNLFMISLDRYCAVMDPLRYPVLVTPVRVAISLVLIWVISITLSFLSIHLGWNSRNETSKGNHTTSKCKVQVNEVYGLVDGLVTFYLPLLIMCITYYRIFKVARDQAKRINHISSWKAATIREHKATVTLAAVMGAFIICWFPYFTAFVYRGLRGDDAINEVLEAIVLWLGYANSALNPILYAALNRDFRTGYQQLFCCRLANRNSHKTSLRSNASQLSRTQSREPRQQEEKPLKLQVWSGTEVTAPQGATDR
Sequence of Tyrosine-protein kinase Lck (P06239 whole entry): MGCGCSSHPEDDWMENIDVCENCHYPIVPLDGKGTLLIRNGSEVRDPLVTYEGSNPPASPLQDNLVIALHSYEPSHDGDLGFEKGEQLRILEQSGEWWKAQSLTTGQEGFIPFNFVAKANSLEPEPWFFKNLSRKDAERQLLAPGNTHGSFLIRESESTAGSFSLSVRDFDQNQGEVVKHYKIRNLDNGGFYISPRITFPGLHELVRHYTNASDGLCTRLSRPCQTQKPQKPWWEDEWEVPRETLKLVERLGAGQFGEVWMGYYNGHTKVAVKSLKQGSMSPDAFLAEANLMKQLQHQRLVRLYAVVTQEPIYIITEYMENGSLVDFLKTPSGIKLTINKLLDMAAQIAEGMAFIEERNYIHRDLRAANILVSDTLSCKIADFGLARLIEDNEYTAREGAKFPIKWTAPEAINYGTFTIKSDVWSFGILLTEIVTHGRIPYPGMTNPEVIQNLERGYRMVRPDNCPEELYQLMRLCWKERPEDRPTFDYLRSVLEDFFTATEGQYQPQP

Consider `C/C=C/C[C@@H](C)[C@@H](O)[C@H]1C(=O)N[C@@H](CC)C(=O)N(C)CC(=O)N(C)[C@@H](CC(C)C)C(=O)N[C@@H](C(C)C)C(=O)N(C)[C@@H](CC(C)C)C(=O)N[C@@H](C)C(=O)N[C@H](C)C(=O)N(C)[C@@H](CC(C)C)C(=O)N(C)[C@@H](CC(C)C)C(=O)N(C)[C@@H](C(C)C)C(=O)N1C` [CYCLOSPORINE], for which the IC50 result (on Mu-type opioid receptor (cho-k1); in assay [1] (insect cells); against Histamine H2 receptor (cho-k1); in assay [2] (sf9); against Substance-P receptor) was “Not Active” throughout.
Consider `CN(C)/N=N/c1[nH]cnc1C(N)=O` [DACARBAZINE], for which the IC50 result (on Mu-type opioid receptor (cho-k1); in assay [1] (insect cells); against Histamine H2 receptor (cho-k1); in assay [2] (sf9); on Substance-P receptor) was “Not Active” each time.
Regarding `COc1ccc2c(c1)[C@]13CCCC[C@@H]1[C@H](C2)N(C)CC3` [DEXTROMETHORPHAN], the IC50 result (at Mu-type opioid receptor (cho-k1); in assay [1] (insect cells); against Histamine H2 receptor (cho-k1); in assay [2] (sf9); against Substance-P receptor) was “Not Active” throughout.
As to `CC(=O)Nc1c(I)c(NC(C)=O)c(I)c(C(=O)O)c1I` [DIATRIZOIC ACID], the IC50 entry (on Mu-type opioid receptor (cho-k1); in assay [1] (insect cells); against Histamine H2 receptor (cho-k1); in assay [2] (sf9); against Substance-P receptor) was “Not Active” each time.
Regarding `O=C(O)Cc1ccccc1Nc1c(Cl)cccc1Cl` [DICLOFENAC], the IC50 entry (at Mu-type opioid receptor (cho-k1); in assay [1] (insect cells); on Histamine H2 receptor (cho-k1); in assay [2] (sf9); against Substance-P receptor) was “Not Active” throughout.
In the case of `C[C@H]1O[C@@H](O[C@H]2[C@@H](O)C[C@H](O[C@H]3[C@@H](O)C[C@H](O[C@H]4CC[C@@]5(C)[C@H](CC[C@@H]6[C@@H]5CC[C@]5(C)[C@@H](C7=CC(=O)OC7)CC[C@]65O)C4)O[C@@H]3C)O[C@@H]2C)C[C@H](O)[C@@H]1O` [DIGITOXIN], the IC50 result (at Mu-type opioid receptor (cho-k1); in assay [1] (insect cells); against Histamine H2 receptor (cho-k1); in assay [2] (sf9); against Substance-P receptor) was “Not Active” each time.
For `CCN1CC(CCN2CCOCC2)C(c2ccccc2)(c2ccccc2)C1=O` (stereo not drawn) [DOXAPRAM], the IC50 result (on Mu-type opioid receptor (cho-k1); in assay [1] (insect cells); on Histamine H2 receptor (cho-k1); in assay [2] (sf9); against Substance-P receptor) was “Not Active” in each case.
As to `Cn1c(=O)c2c(ncn2CC2OCCO2)n(C)c1=O` [DOXOFYLLINE], the IC50 result (at Mu-type opioid receptor (cho-k1); in assay [1] (insect cells); at Histamine H2 receptor (cho-k1); in assay [2] (sf9); on Substance-P receptor) was “Not Active” each time.
`COc1cccc2c1C(=O)c1c(O)c3c(c(O)c1C2=O)C[C@@](O)(C(=O)CO)C[C@@H]3O[C@H]1C[C@H](N)[C@H](O)[C@H](C)O1` [DOXORUBICIN]: the IC50 result at Mu-type opioid receptor (cho-k1) is “Not Active”; in assay [1] (read-out: IC50), 31900 nM; on Histamine H2 receptor (cho-k1), “Not Active”; in assay [2] (sf9), “Not Active”; against Substance-P receptor it was “Not Active”.
Take `COc1cccc2c1C(=O)c1c(O)c3c(c(O)c1C2=O)C[C@@](O)(C(=O)CO)C[C@@H]3O[C@H]1C[C@H](N)[C@@H](O)[C@H](C)O1` [EPIRUBICIN]: the half-inhibitory concentration (IC50) entry (at Mu-type opioid receptor (cho-k1); in assay [1] (insect cells); against Histamine H2 receptor (cho-k1); in assay [2] (sf9); against Substance-P receptor) was “Not Active” throughout.
In the case of `C[C@]12CC[C@@H]3c4ccc(OC(=O)c5ccccc5)cc4CC[C@H]3[C@@H]1CC[C@@H]2O` [ESTRADIOL BENZOATE], the IC50 result (on Mu-type opioid receptor (cho-k1); in assay [1] (insect cells); at Histamine H2 receptor (cho-k1); in assay [2] (sf9); against Substance-P receptor) was “Not Active” each time.
For `C[C@]12CC[C@@H]3c4ccc(O)cc4CC[C@H]3[C@@H]1CC[C@@H]2O` [ESTRADIOL], the concentration for half-maximal inhibition (IC50) result (at Mu-type opioid receptor (cho-k1); in assay [1] (insect cells); against Histamine H2 receptor (cho-k1); in assay [2] (sf9); against Substance-P receptor) was “Not Active” in each case.
Take `CC[C@@H](CO)NCCN[C@@H](CC)CO` [ETHAMBUTOL]: the IC50 result (at Mu-type opioid receptor (cho-k1); in assay [1] (insect cells); against Histamine H2 receptor (cho-k1); in assay [2] (sf9); on Substance-P receptor) was “Not Active” each time.
Turning to `CC1(C)O[C@@H]2C[C@H]3[C@@H]4C[C@H](F)C5=CC(=O)C=C[C@]5(C)[C@H]4[C@@H](O)C[C@]3(C)[C@]2(C(=O)CO)O1` [FLUNISOLIDE], the IC50 entry (on Mu-type opioid receptor (cho-k1); in assay [1] (insect cells); against Histamine H2 receptor (cho-k1); in assay [2] (sf9); against Substance-P receptor) was “Not Active” in each case.
In the case of `CC1(C)O[C@@H]2C[C@H]3[C@@H]4C[C@H](F)C5=CC(=O)C=C[C@]5(C)[C@@]4(F)[C@@H](O)C[C@]3(C)[C@]2(C(=O)CO)O1` [FLUOCINOLONE ACETONIDE], the IC50 result (on Mu-type opioid receptor (cho-k1); in assay [1] (insect cells); at Histamine H2 receptor (cho-k1); in assay [2] (sf9); against Substance-P receptor) was “Not Active” each time.
With `CC1(C)O[C@@H]2C[C@H]3[C@@H]4C[C@H](F)C5=CC(=O)CC[C@]5(C)[C@H]4[C@@H](O)C[C@]3(C)[C@]2(C(=O)CO)O1` [FLURANDRENOLIDE], the 50% inhibitory concentration (IC50) result (at Mu-type opioid receptor (cho-k1); in assay [1] (insect cells); against Histamine H2 receptor (cho-k1); in assay [2] (sf9); on Substance-P receptor) was “Not Active” in each case.
In the case of `CN(C)c1ccc(C(=C2C=CC(=[N+](C)C)C=C2)c2ccc(N(C)C)cc2)cc1.[Cl-]` [GENTIAN VIOLET], the concentration for half-maximal inhibition (IC50) at Mu-type opioid receptor (read-out: IC50) is 2150 nM; in assay [1] (insect cells), “Not Active”; at Histamine H2 receptor (read-out: IC50), 1160 nM; in assay [2] (read-out: IC50) it was 536 nM; on Substance-P receptor, “Not Active”. Further, the Ki on Mu-type opioid receptor (read-out: Ki) was 871 nM; on Histamine H2 receptor (read-out: Ki) it was 1140 nM; in assay [2] (read-out: Ki), 201 nM.
For the compound `Cc1ccc(S(=O)(=O)NC(=O)NN2CC3CCCC3C2)cc1` (stereo not drawn) [GLICLAZIDE], the IC50 result (on Mu-type opioid receptor (cho-k1); in assay [1] (insect cells); on Histamine H2 receptor (cho-k1); in assay [2] (sf9); on Substance-P receptor) was “Not Active” throughout.
On to `NC(=O)NO` [HYDROXYUREA], for which the IC50 entry (at Mu-type opioid receptor (cho-k1); in assay [1] (insect cells); on Histamine H2 receptor (cho-k1); in assay [2] (sf9); against Substance-P receptor) was “Not Active” in each case.
`CC(C)Cc1ccc(C(C)C(=O)O)cc1` (stereo not drawn) [IBUPROFEN]: the IC50 entry (at Mu-type opioid receptor (cho-k1); in assay [1] (insect cells); against Histamine H2 receptor (cho-k1); in assay [2] (sf9); at Substance-P receptor) was “Not Active” throughout.
For `COc1ccc2c(c1)c(CC(=O)O)c(C)n2C(=O)c1ccc(Cl)cc1` [INDOMETHACIN], the half-inhibitory concentration (IC50) entry (at Mu-type opioid receptor (cho-k1); in assay [1] (insect cells); on Histamine H2 receptor (cho-k1); in assay [2] (sf9); at Substance-P receptor) was “Not Active” each time.
Consider `CCc1c2c(nc3ccc(OC(=O)N4CCC(N5CCCCC5)CC4)cc13)-c1cc3c(c(=O)n1C2)COC(=O)[C@]3(O)CC` [IRINOTECAN], for which the IC50 entry (at Mu-type opioid receptor (cho-k1); in assay [1] (insect cells); against Histamine H2 receptor (cho-k1); in assay [2] (sf9); at Substance-P receptor) was “Not Active” each time.
Consider `CC(C(=O)O)c1cccc(C(=O)c2ccccc2)c1` (stereo not drawn) [KETOPROFEN], for which the concentration for half-maximal inhibition (IC50) entry (at Mu-type opioid receptor (cho-k1); in assay [1] (insect cells); at Histamine H2 receptor (cho-k1); in assay [2] (sf9); against Substance-P receptor) was “Not Active” each time.
Turning to `Nc1ccn([C@@H]2CS[C@H](CO)O2)c(=O)n1` [LAMIVUDINE], the IC50 result (on Mu-type opioid receptor (cho-k1); in assay [1] (insect cells); on Histamine H2 receptor (cho-k1); in assay [2] (sf9); against Substance-P receptor) was “Not Active” throughout.
Regarding `O=S(=O)([O-])CCS.[Na+]` [MESNA], the IC50 entry (at Mu-type opioid receptor (cho-k1); in assay [1] (insect cells); at Histamine H2 receptor (cho-k1); in assay [2] (sf9); at Substance-P receptor) was “Not Active” each time.
Regarding `C#C[C@]1(O)CC[C@H]2[C@@H]3CCc4cc(OC)ccc4[C@H]3CC[C@@]21C` [MESTRANOL], the IC50 entry (at Mu-type opioid receptor (cho-k1); in assay [1] (insect cells); at Histamine H2 receptor (cho-k1); in assay [2] (sf9); against Substance-P receptor) was “Not Active” throughout.
Turning to `CC(=O)Nc1cccc(O)c1` [METACETAMOL], the IC50 entry (on Mu-type opioid receptor (cho-k1); in assay [1] (insect cells); at Histamine H2 receptor (cho-k1); in assay [2] (sf9); on Substance-P receptor) was “Not Active” in each case.
Take `Cc1ncc([N+](=O)[O-])n1CCO` [METRONIDAZOLE]: the IC50 entry (on Mu-type opioid receptor (cho-k1); in assay [1] (insect cells); against Histamine H2 receptor (cho-k1); in assay [2] (sf9); on Substance-P receptor) was “Not Active” each time.
Regarding `CC(C)(C(=O)c1cccnc1)c1cccnc1` [METYRAPONE], the IC50 entry (at Mu-type opioid receptor (cho-k1); in assay [1] (insect cells); against Histamine H2 receptor (cho-k1); in assay [2] (sf9); at Substance-P receptor) was “Not Active” each time.

By IC50 is commonly meant the concentration that gives 50% inhibition. What is called Ki is the equilibrium dissociation constant of an inhibitor or competing ligand from its target.

These data come from ChEMBL document CHEMBL1909046, “DrugMatrix in vitro pharmacology data”.
